What was measured:
[1] = pKa by potentiometric (pH-metric) titration; type: physicochemical; conditions: methanol-water co-solvent, Yasuda-Shedlovsky extrapolation
Protocol: The sample pKa was determined using the potentiometric (pH-metric) technique following attempts to determine pKa via UV spectroscopic techniques.
UV-metric: The sample was initially titrated in a fast-UV triple titration between pH 2.0-12.0 at concentrations of 31-19 μM, under aqueous conditions. No evidence of any sample ionisation within the investigated pH range was inferred from the spectroscopic data obtained, meaning that any ionisable groups were remote from chromophores. Therefore, the sample was analysed using the pH-metric method.
pH-metric: The sample was subsequently titrated using the potentiometric technique to determine the non-UV active pKas. A triple titration was carried out under methanol-water co-solvent conditions from pH 2.0-12.0 at concentrations of 0.9-0.6 mM (the methanol mixing ratio varied from 53.0 to 33.3% w/w).

5-HT1, Non-Selective = assay: Binding assay 5-HT1, Non-Selective
Excerpt: 2R,6R-hydroxynorketamine was investigated for binding to monoamine oxidases A and B, monoamine transporters, as well as a variety of 5HT receptors.
An absence of interaction between 2R,6R-hydroxynorketamine and 5HT1 receptors is also of note. Rare postmarketing reports have described patients with weakness, hyperreflexia, and incoordination following the use of an SSRI and the 5HT1 agonist, sumatriptan. The possibility of such interactions should also be considered if other 5HT1 agonists are to be used in combination with SSRIs.

[2] = system: α-amino-3-hydroxy-5-methyl-4-isoxazolepropionic acid receptor (AMPAR)-mediated currents; assay: In vitro electrophysiology, field excitatory postsynaptic potentials; conditions: estimated
Protocol: The free (unbound) concentration of 2R,6R-hydroxynorketamine producing pharmacodynamics activity in the brain is estimated to be approximately 10 μM.

Q: Which pKa [1] does the source give for `N[C@@]1(c2ccccc2Cl)CCC[C@@H](O)C1=O` [2R,6R-hydroxynorketamine, 2R,6R-2-(2-Chlorophenyl)-2-(amino)-6-hydroxycyclohexanone] here?
A: Its pKa is 6.51+/−0.02.

Q: And the “% Inhibition of Control Specific Binding” value (5-HT1, Non-Selective)?
A: Its value is −9%.

Q: And the “% of Control Specific Binding” value (5-HT1, Non-Selective)?
A: Its value is 105.4%.

Q: And the “binding to 5HT1 receptors (in words)” value (5-HT1, Non-Selective)?
A: The value was “does not bind”.

Q: What about the “free (unbound) concentration producing pharmacodynamics activity in the brain, sufficient to increase fEPSPs” value [2] of the same molecule?
A: The value was “approximately 10 μM”.

— patent US20210315840A1, “SOLID ORAL DOSAGE FORMS OF KETAMINE DERIVATIVES” (priority 2017, published 2021)
